The record followed here is ChEMBL document CHEMBL1147409, “3-(4-Aminobutyn-1-yl)pyridines: binding at alpha 4 beta 2 nicotinic cholinergic receptors” (Bioorg Med Chem Lett, 2004).

A value given as a limit tells only on which side of the number the result lay.

Assay [1] concerns the target Neuronal acetylcholine receptor alpha4/beta2 (Rattus norvegicus). As to the kind of experiment: Binding affinity towards nicotinic acetylcholine receptor alpha4-beta2 from rat brain homogenates.
The target of assay [2] is Neuronal acetylcholine receptor; alpha4/beta2 (Homo sapiens, UniProt P17787+P43681). As to the kind of experiment: Binding affinity towards nicotinic acetylcholine receptor alpha4-beta2. Format: protein-complex assay.
Neuronal acetylcholine receptor; alpha4/beta2, sequence (P17787 whole entry): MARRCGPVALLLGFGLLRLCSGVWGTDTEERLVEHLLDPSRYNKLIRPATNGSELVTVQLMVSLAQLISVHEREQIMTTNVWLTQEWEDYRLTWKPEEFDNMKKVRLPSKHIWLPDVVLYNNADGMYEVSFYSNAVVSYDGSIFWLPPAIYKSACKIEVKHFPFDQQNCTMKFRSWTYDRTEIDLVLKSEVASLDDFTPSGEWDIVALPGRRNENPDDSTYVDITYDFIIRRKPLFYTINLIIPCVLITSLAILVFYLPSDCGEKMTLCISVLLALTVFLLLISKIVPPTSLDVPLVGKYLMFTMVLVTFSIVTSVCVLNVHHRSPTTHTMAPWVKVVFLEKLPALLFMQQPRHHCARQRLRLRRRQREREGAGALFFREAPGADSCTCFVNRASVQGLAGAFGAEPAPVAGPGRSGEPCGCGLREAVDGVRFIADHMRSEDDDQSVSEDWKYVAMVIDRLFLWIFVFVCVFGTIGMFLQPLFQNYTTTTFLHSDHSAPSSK
Neuronal acetylcholine receptor; alpha4/beta2, sequence (P43681 whole entry): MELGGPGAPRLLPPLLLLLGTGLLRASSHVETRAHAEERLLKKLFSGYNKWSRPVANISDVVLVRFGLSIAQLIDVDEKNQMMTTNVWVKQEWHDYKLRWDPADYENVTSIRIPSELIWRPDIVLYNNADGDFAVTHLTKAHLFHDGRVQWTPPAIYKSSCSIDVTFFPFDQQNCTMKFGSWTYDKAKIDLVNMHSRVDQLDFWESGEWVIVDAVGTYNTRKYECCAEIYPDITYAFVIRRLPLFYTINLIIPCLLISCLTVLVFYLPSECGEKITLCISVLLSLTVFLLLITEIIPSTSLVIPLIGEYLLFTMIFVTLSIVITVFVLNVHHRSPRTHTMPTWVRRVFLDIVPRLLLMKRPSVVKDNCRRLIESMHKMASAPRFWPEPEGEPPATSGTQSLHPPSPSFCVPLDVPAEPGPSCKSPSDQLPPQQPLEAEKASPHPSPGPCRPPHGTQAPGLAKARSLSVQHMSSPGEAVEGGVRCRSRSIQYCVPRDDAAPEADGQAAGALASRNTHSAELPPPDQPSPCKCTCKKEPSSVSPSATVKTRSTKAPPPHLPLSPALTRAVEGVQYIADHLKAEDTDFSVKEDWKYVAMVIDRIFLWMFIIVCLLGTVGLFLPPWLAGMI

Compound `CNCCOc1cccnc1` showed a Ki in assay [1] of 0.035 µM.

In turn, `CNCCC#Cc1ccc(OC)nc1` returned a Ki in assay [1] of over 10 µM.

Take `c1cncc(CN2CCCC2)c1`: the Ki in assay [1] stood at 0.03 µM.

`CNCC#Cc1cccnc1`: the affinity in assay [2] corresponds to a Ki of 2.29 µM.

Turning to `CNC/C=C/c1cccnc1`, the Ki in assay [2] was about 6 µM.

`CN(C)CCC#Cc1cccnc1` registered a Ki in assay [1] of 0.51 µM.

With `C[N+](C)(C)CCC#Cc1cccnc1`, affinity in assay [1] was put at a Ki of 0.47 µM.

Turning to `C(#Cc1cccnc1)CCN1CCCC1`, the Ki in assay [1] is over 10 µM.

In the case of `c1cncc(OCCN2CCCC2)c1`, the Ki in assay [1] amounted to 0.212 µM.

Consider `CN(C)Cc1cccnc1`, for which, in assay [1], the Ki came to 0.54 µM.

As for `C[N+](C)(C)CCOc1cccnc1`, the Ki in assay [1] came out at 0.0005 µM.

The compound `CNCCC#Cc1ccc(Cl)nc1` yielded an inhibitory constant (Ki) in assay [1] of 0.154 µM.

In the case of `C[N+](C)(C)Cc1cccnc1`, the Ki in assay [1] amounted to 0.11 µM.

In assay [1], `CNCc1cccnc1` gave a Ki of over 10 µM.

On to `CCN(C)Cc1cccnc1`, for which, in assay [1], affinity was put at a Ki of 0.028 µM.

`CN(C)CCOc1cccnc1`: the Ki in assay [1] stood at 0.021 µM.

`CNCC/C=C/c1cccnc1` [RIVANICLINE]: the Ki in assay [2] turned out to be 0.025 µM.

By Ki is commonly meant a measure of affinity in units of concentration, obtained from inhibition or displacement.
